For test [1], the system named is human breast cancer (MCF-7). Briefly: Inhibition of tumour cell proliferation in vitro ([3H]thymidine incorporation), MCF-7. The format is cell-based. The note with it: MCF7, 24 hours, read-out: The median inhibition concentration (IC50, nM) of MCF-7. The protocol: (§1) The inhibition of tumour cell proliferation was studied using different types of human cancer cell lines. The cell lines under investigation were small cell lung carcinoma (NYH), and breast cancer (MCF-7) using the following general procedure.
(§2) The cells were cultured in vitro for 24 hours in the presence of the compound under investigation. DNA synthesis was measured by incorporation of [3H]thymidine, and the median inhibitory concentrations (IC50) of the compounds were calculated.
For orientation: Dividing cells build labelled thymidine or BrdU into new DNA.

The test system of test [2] is Yoshida sarcoma cells. Briefly: Survival of Yoshida tumour-bearing rats (Increased Life Span). The note with it: once daily from day 3. The format is in vivo, LEW/Mol inbred female rats. How it is done:
The prolongation of survival time of tumour-bearing rats was studied in LEW/Mol inbred female rats inoculated with Yoshida sarcoma cells in a number of 2×10^7 cells. Tumour-bearing rats (6 animals per group) were dosed orally once daily from day 3 after the transfer of tumour cells and until death or until the body-weights had increased by 10% as a consequence of tumour proliferation. The mean survival day of treated versus non-treated rats is used to calculate ILS (Increased Life Span). ILS=((mean treated/mean control)-1)*100%.

Test [3] has as its system human small cell lung carcinoma (NYH). Briefly: Inhibition of tumour cell proliferation in vitro ([3H]thymidine incorporation), NYH. The format is cell-based. The conditions noted are these: 24 hours, read-out: The median inhibition concentration (IC50, nM) of NYH. The protocol: as §1, §2

Each structure is given as a SMILES string.

For the compound `N#CN=C(NCCCCCCOc1ccc(Cl)cc1)c1cccnc1` [Example no. 1, N^2 -Cyano-N^1-(6(4-chlorophenoxy)hexyl)-3-pyridinecarboxamidine], the values for the IC50 in test [1] and in test [3] were 350 nM and 39 nM, respectively. Further, the entries for the “Increased life span (ILS)” value in test [2] (10 mg/kg p.o.), in test [2] (20 mg/kg p.o.) and in test [2] (30 mg/kg p.o.) were 60%, 90% and 102%, respectively.

As to `COc1ccccc1OCCCCCCNC(=NC#N)c1cccnc1` [Example no. 2, N^2 -Cyano-N^1-(6-(2-methoxyphenoxy)hexyl)-3-pyridinecarboxamidine], the IC50 in test [1] is 540 nM; in test [3], 340 nM.

Turning to `N#CNC(=Nc1ccncc1)NCCCCCOc1ccccc1` [Prior art C, N-Cyano-N'-(5-phenoxypentyl)-N"-4-pyridylguanidine, reference compound], the results for the IC50 in test [1] and in test [3] were 250 nM and 45 nM, respectively. For the same compound, in test [2] (50 mg/kg p.o.), the “Increased life span (ILS)” value was determined as 35%.

As for `CCCCCCCCNC(=NC#N)c1cccnc1` [Prior art A, N^2 -Cyano-N^1-octyl-3-pyridinecarboxamidine, reference compound], the IC50 in test [1] turned out to be 10000 nM.

Take `N#CN=C(NCCCCCCOc1ccc2c(c1)OCO2)c1cccnc1` [Example no. 3, N^2 -Cyano-N^1-(6-(3,4-methylenedioxyphenoxy)hexyl)-3-pyridinecarboxamidine]: the IC50 was found to be 740 nM in test [1] and 350 nM in test [3].

Consider `N#CNC(=Nc1ccncc1)NCCCCOc1ccccc1` [Prior art B, N-Cyano-N'-(4-phenoxybutyl)-N"-4-pyridylguanidine, reference compound], for which the IC50 was 920 nM in test [1] and 380 nM in test [3].

(Values after patent publication US6303641A, “Cyanoamidines as cell proliferation inhibitors” (Leo Pharmaceuticals Products Ltd., priority 1997, dated 2001).)
